Results published in US7361730B1, “Surface localized colligin/Hsp47 in carcinoma cells” (University of Maryland, priority 1999, dated 2008).

Experiments:
SCC cells and LL/2 cells = assay: Tumor cell invasion assay (modified Boyden chamber, Matrigel); type: cell-based, human and murine; settings: SCC and LL/2 cells in Matrigel chambers, 24 hrs
Experimental: An in vitro assay is modified after that described previously by Chu et al. (1993) Proc. Natl. Acad. Sci. 90, 4261-4265, utilizing Matrigel®, a reconstituted basement membrane. In essence, a modified Boyden chamber containing an 8 μm-porosity polyvinylpyrolidone-free polycarbonate filter is precoated with Matrigel® (Collaborative Biomedical Products, Becton Dickinson, Bedford, Mass.). The lower well of the chamber is then filled with serum free medium containing 500 μl of 3T6 cell-conditioned medium as a chemoattractant. The upper well is then seeded with 200 μl of cell suspension at 1.0×10^4 cells/chamber plus additives as indicated. The chambers are then incubated at 37° C. for 24 hrs. […] The resulting cells contained in Matrigel®, as well as the cells in the lower chamber, are counted in a Coulter counter. Data are expressed as the percent invasion through the matrix and membrane relative to the migration through the control membrane. The “Invasion Index” is expressed as the ratio of the percent invasion of a test cell over the percent invasion of a control cell.
Overall treatment and group effects are assessed using an analysis of variance (ANOVA), with post-hoc comparisons based on the Newman-Keuls test (p<0.05). The association of mean HSP47 fluorescence labeling with the invasion index is evaluated using the nonparametric Spearman's rank-order correlation coefficient (rho).

colligin/Hsp47 = assay: Cell surface labeling, cross-linking and immunoprecipitation; type: cell-based, human and murine; settings: 1 mM amiloride; SCC and LL/2 cells
Experimental: The methods used were previously described for the characterization of TM4SF complexes with integrins (Berditchevski et al., (1996) Molec. Biol. of the Cell 7, 193-207). In essence, cells are labeled with NHS-LC-biotin (Pierce, Rockford, Ill.) according to kit protocol, and lysed in immunoprecipitation buffer [1% Brij 96, 25 mM Hepes, pH 7.4, 150 mM NaCl, 5 mM MgCl2, 2 mM PMSF, 20 μg/ml apotinin, and 10 μg/ml leupeptin]. Immune complexes are collected on protein A beads pre-bound with antibodies, followed by four washes with immunoprecipitation buffer. For more “stringent” conditions, the immunoprecipitation buffer is supplemented with 0.2% SDS. Immune complexes are eluted from protein A beads with Laemmli elution buffer and proteins are separated by SDS-PAGE. Proteins are transferred to nitrocellulose membranes and visualized with HRPO-conjugated ExtrAvidin (Sigma Chemical Co., St. Louis Mo.) using Renaissance Chemiluminescent Reagents (NEN, Cambridge). Reprecipitations are preformed from Brij 96 lysates prepared from surface-biotinylated SCC cells. […]
(§1) For cross-linking, cells are treated with DTSSP, a membrane impermeable cross-linker or DSP. After solubilization in immunoprecipitation buffer supplemented with 0.2% SDS protein complexes are immunoprecipitated as above and analyzed under reducing conditions.

[1] = target: T1, colligin/CBP2/Hsp47 on the surface of human carcinoma cells (human, UniProt P50454 19-418); assay: cross-linking (DSP) and immunoprecipitation with anti-CD81 mAbs, SCC cells
T1 construct: whole, on cells; Endogenous protein on intact cells or in plasma membrane preparations or Brij 96 lysates of surface-biotinylated cells; The 46K band is called unglycosylated Hsp47; also called colligin/Hsp47; cell surface colligin/Hsp47
T1 sequence (looked up): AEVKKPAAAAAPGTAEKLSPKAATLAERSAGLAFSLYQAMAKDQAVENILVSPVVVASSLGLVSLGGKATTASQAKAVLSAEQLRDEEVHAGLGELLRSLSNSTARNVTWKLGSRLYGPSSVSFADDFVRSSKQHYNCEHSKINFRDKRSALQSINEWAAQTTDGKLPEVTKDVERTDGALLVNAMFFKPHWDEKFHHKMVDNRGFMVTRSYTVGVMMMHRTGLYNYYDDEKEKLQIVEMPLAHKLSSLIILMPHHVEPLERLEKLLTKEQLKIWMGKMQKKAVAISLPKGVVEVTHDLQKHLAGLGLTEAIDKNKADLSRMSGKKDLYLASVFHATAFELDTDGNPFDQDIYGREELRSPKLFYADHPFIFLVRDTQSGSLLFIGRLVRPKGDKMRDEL
Experimental: (§2) Reprecipitations are preformed from Brij 96 lysates prepared from surface-biotinylated SCC cells. After five washes with the immunoprecipitation buffer, the protein complexes are dissociated with 0.5% SDS added to the immunoprecipitation buffer. The eluates are subsequently diluted 1:1 with immunoprecipitation buffer and re-precipitated with the appropriate antibodies directly coupled to Sepharose beads. The samples are then processed as described above.
as §1
(§3) Membrane surface proteins are consistently co-precipitated with anti-colligin/Hsp47 antibodies. In cross-linking studies, SCC and LL/2 cells are first pre-treated with a cleavable cross-linker, DSP, then surface labeled with biotin or [^125]-I, and subsequent immunoprecipitation is carried out under stringent conditions to disrupt the noncovalent association between Hsp and tetraspanin protein. […] A characteristic 47K band is readily detected in all anti-CD9 immunoprecipitates and protein band of 22K, similar in size to CD9/or CD81, is co-precipitated with anti-colligin/Hsp47. […]

[2] = target: T2, colligin/Hsp47 on the surface of murine Lewis Lung Carcinoma (LL/2) cells (murine, UniProt P19324 18-417); assay: cross-linking (DSP) and immunoprecipitation with anti-CD81 mAbs, LL/2 cells
T2 construct: whole, on cells; Endogenous protein of LL/2 cells
T2 sequence (looked up): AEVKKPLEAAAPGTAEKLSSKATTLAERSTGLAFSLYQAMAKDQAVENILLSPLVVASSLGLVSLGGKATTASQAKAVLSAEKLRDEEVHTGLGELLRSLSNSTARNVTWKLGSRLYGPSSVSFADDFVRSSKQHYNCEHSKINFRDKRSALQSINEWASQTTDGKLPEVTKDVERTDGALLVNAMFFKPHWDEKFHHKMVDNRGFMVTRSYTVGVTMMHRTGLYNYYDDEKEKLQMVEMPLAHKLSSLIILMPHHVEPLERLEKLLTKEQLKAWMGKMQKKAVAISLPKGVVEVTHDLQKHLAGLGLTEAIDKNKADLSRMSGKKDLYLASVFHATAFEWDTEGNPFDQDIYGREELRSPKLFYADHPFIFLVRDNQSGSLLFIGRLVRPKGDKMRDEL
Experimental: as §2, §1, §3

N=C(N)NC(=O)c1nc(Cl)c(N)nc1N [amiloride]
invasion index (SCC cells and LL/2 cells): dramatically decreases the invasion index
amount of colligin/Hsp47 recovered following immunoprecipitation (colligin/Hsp47): greatly enhances

B1: CD81 on human SCC cells (other, UniProt P60033 1-236, looked up)
chain: MGVEGCTKCIKYLLFVFNFVFWLAGGVILGVALWLRHDPQTTNLLYLELGDKPAPNTFYVGIYILIAVGAVMMFVGFLGCYGAIQESQCLLGTFFTCLVILFACEVAAGIWGFVNKDQIAKDVKQFYDQALQQAVVDDDANNAKAVVKTFHETLDCCGSSTLTALTTSVLKNNLCPSGSNIISNLFKEDCHQKIDDLFSGKLYLIGIAAIVVAVIMIFEMILSMVLCCGIRNSSVY
notes: whole, on cells
binding result [1]: no binding

B2: CD81 on murine LL/2 cells (other, UniProt P35762 1-236, looked up)
chain: MGVEGCTKCIKYLLFVFNFVFWLAGGVILGVALWLRHDPQTTSLLYLELGNKPAPNTFYVGIYILIAVGAVMMFVGFLGCYGAIQESQCLLGTFFTCLVILFACEVAAGIWGFVNKDQIAKDVKQFYDQALQQAVMDDDANNAKAVVKTFHETLNCCGSNALTTLTTTILRNSLCPSGGNILTPLLQQDCHQKIDELFSGKLYLIGIAAIVVAVIMIFEMILSMVLCCGIRNSSVY
notes: whole, on cells
binding result [2]: no binding
